The target of one test is T1, PLCδ-PH (PLCδ PH domain) (Homo sapiens, UniProt P51178).
T1 sequence (P51178 21-130 limits assumed): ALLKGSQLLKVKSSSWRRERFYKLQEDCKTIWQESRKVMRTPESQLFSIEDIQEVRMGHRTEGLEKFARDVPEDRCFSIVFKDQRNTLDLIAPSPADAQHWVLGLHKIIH
Description: SPR equilibrium binding of PLCδ-PH to phosphoinositide-containing LUVs. Conditions: POPC/POPS/PtdIns(4,5)P2 (77:20:3) LUVs, 20 mM Tris-HCl pH 7.4, 0.16 M KCl, read-out: Kd for PtdIns(4,5)P2. The procedure:
With respect to FIG. […] The proteins were incubated with a given concentration of IP3 for 5 minutes before injecting into the SPR instrument. Kinetic SPR measurements were performed in 20 mM Tris-HCL, pH 7.4, containing 0.16 KCl. […] A lower concentration of DAN-eENTH was used than that of PLCδ PH because the former has much higher affinity that the latter.
LUVs were prepared by extrusion using a 100 nm-pore membrane. GUVs were prepared by electroformation. The lipid mixture were prepared in chloroform/methanol (3:1) at a total concentration of 0.4 mg/ml, then the lipid solution was spread onto the indium-tin oxide electrode surface and the lipid was dried under vacuum to form a uniform lipid film. Vesicles were grown in a sucrose solution (350 mM) while an electric field (3V, 20 Hz frequency) was applied for 5 hour at room temperature. After 1 to […] of sucrose-loaded GUV solution was added into a well glued onto a coverslip that was placed on the microscope stage. The well contained […] of 20 mM Tris-HCl buffer, pH 7.4, with 0.16 M KCl solution. The diameter of GUVs ranged from 5 to 30 μm.

In test [1] the target is T2, epsin 1 ENTH domain, wild type, SEQ ID NO: 1 (Homo sapiens, UniProt Q9Y6I3).
T2 construct: The Epsin1 ENTH domain (1-158 amino acids) was subcloned; GST (C, cleaved yes); made in house; host or cells: E. coli BL21 RIL codon plus
T2 sequence (Q9Y6I3 1-158): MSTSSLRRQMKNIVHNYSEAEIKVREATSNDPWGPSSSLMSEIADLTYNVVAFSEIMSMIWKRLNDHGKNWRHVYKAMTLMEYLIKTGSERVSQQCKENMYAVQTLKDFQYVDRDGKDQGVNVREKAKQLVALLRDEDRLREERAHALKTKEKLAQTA
Nature of the test: SPR equilibrium binding of epsin1 ENTH domain (wild type) to phosphoinositide-containing LUVs. The source says:
The ENTH domain was engineered to introduce a single labeling site (M10C) on the membrane binding surface while removing an endogenous Cys (C96A). We also performed the S4W mutation to suppress its residual affinity for another lipid, phosphatidylinositol-3,4,5-trisphosphate (PtdIns(3,4,5)P3) (PtdIns(4,5)P2/PtdIns(3,4,5)P3=4 for wild type and >10 for the mutant) and to enhance the overall affinity for PtdIns(4,5)P2-containing membranes (ca. 4-fold) (Table 1).
With respect to FIG. 1, an L1 sensor chip was coated with POPC/POPS/PtdIns(4,5)P2 (77:20:3) LUVs. The proteins were incubated with a given concentration of IP3 for 5 minutes before injecting into the SPR instrument. Kinetic SPR measurements were performed in 20 mM Tris-HCL, pH 7.4, containing 0.16 KCl. […] A lower concentration of DAN-eENTH was used than that of PLCδ PH because the former has much higher affinity that the latter.
The Epsin1 ENTH domain (1-158 amino acids) was subcloned into the pGEX4T-1 vector and expressed as a […] glutathione S-transferase (GST)-tagged protein. The ENTH domain amino acid sequence is as follows:
E. coli BL21 RIL codon plus (Stratagene) cells were used for protein expression. Cells were grown in Luria broth media containing 100 μg/ml of ampicillin at 37° C. 0.1 mM of Isopropyl β-D-1-thiogalactopyranoside was added to induce over-expression of recombinant proteins when the OD600 reached 0.5-0.8 and cells were grown for additional 6 to 10 hours at 25° C. Cells were harvested by centrifugation and cell pellets were resuspended in 50 mM Tris-HCl buffer (pH 7.4) containing 160 mM KCl, 1 mM phenylmethanesulphonylfluoride, and 5 mM of dithiothreitol (DTT). Cells were lysed by sonication and the lysate was collected by centrifugation at 4° C. The GST-affinity resin (GenScript) for GST-tagged proteins or nickel-nitrilotriacetic acid resin (Qiagen, Valencia, Calif.) for His6-tagged proteins was added into the cell lysate and the mixture was gently shaken for 30 minutes at 4° C. The mixture was applied to a column and the column was washed once with 50 mM Tris-HCl buffer (pH 7.4) containing 160 mM KCl and 5 mM of DTT to reduce thiol group, and washed several times with the same buffer without DTT to remove DTT. For DAN labeling, 100 μg of acrylodan was added to the column at this stage and incubated 16 hours at 4° C. The excess acrylodan was removed by washing the column with the buffer several times. […] Purity and the concentration of the recombinant proteins were determined by sodium dodecylsulfate-polyacrylamide gel electrophoresis and bicinchoninic acid assay, respectively. The DAN labeling yield of eENTH, which was calculated as the molar ratio of DAN (determined spectrophotometrically at 391 nm using its extinction coefficient of 20,000 cm^−1 M^−1) to protein, was typically 60-70%. […]

In the case of `CCCCCCCCCCCCCCCC(=O)OC[C@H](COP(=O)(O)O[C@@H]1[C@H](O)[C@H](O)[C@@H](OP(=O)(O)O)[C@H](OP(=O)(O)O)[C@H]1O)OC(=O)CCCCCCCCCCCCCCC` [PtdIns(4,5)P2, phosphatidylinositol-4,5-bisphosphate], the Kd at PLCδ-PH (PLCδ PH domain) was 180 nM; in test [1] (SPR, POPC/POPS/PtdIns(4,5)P2 (77:20:3) LUVs, 20 mM Tris-HCl pH 7.4, 0.16 M KCl, read-out: Kd for PtdIns(4,5)P2), 50 nM. Further, in test [1] (wild type), the “PtdIns(4,5)P2/PtdIns(3,4,5)P3 selectivity” value stood at 4.

As a reminder, the Kd is the constant that tells how readily two partners part at equilibrium.

The values are drawn from patent US8686115B2, “Compositions and methods for quantitatively monitoring lipids” (The Board of Trustees of the University of Illinois, priority 2009, dated 2014).
